Assay results as given in ChEMBL document CHEMBL1201862, “PubChem BioAssay data set” (2004).
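In this assay, cells in 96-well plates receive the compound at five concentrations for 48 hours. Endpoints are linearly interpolated between the surrounding concentrations. GI50 = concentration required for 50% inhibition of growth.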 Calls of active or inactive are those of the source. No stated cut-off is given here; in the data, active = GI50 up to about 1.1 µM and inactive = higher.

Legend:
Assay in all cases: DTP human tumour cell line panel, 48 h
786-0 = system: 786-0
A549 = system: A549
ACHN = system: ACHN
EKVX = system: EKVX
HL-60 = system: HL-60
HT-29 = system: HT-29
KM12 = system: KM12
Malme-3M = system: Malme-3M
NCI-H460 = system: NCI-H460
NCI-H522 = system: NCI-H522
SF-268 = system: SF-268
SK-MEL-28 = system: SK-MEL-28
SK-MEL-2 = system: SK-MEL-2
SK-OV-3 = system: SK-OV-3
SNB-19 = system: SNB-19
SW-620 = system: SW-620

SMILES | GI50 (786-0) | GI50 (A549) | GI50 (ACHN) | GI50 (EKVX) | GI50 (HL-60) | GI50 (HT-29) | GI50 (KM12) | GI50 (Malme-3M) | GI50 (NCI-H460) | GI50 (NCI-H522) | GI50 (SF-268) | GI50 (SK-MEL-28) | GI50 (SK-MEL-2) | GI50 (SK-OV-3) | GI50 (SNB-19) | GI50 (SW-620)
COc1cc(/C=C(\C)c2ccc3c(c2)OCO3)cc(OC)c1OC | 21.3 µM (inactive) | 18.5 µM (inactive) | 10.3 µM (inactive) | 10.4 µM (inactive) | 15.7 µM (inactive) | 25.7 µM (inactive) | 44.5 µM (inactive) | 19.8 µM (inactive) | 34.2 µM (inactive) | 20.2 µM (inactive) | 26.9 µM (inactive) | 41.1 µM (inactive) | 23.4 µM (inactive) | 28 µM (inactive) | 50.7 µM (inactive) | 19.1 µM (inactive)
O=C(Cc1ccccc1)NS(=O)(=O)c1ccccc1 | > 100 µM (inactive) | > 100 µM (inactive) | > 100 µM (inactive) | > 100 µM (inactive) | > 100 µM (inactive) | > 100 µM (inactive) | > 100 µM (inactive) | > 100 µM (inactive) | > 100 µM (inactive) | > 100 µM (inactive) | > 100 µM (inactive) | > 100 µM (inactive) | > 100 µM (inactive) | > 100 µM (inactive) | > 100 µM (inactive) | > 100 µM (inactive)
CCc1cccc(C)c1NC(=O)CC1C(=O)Nc2ccccc2S1(=O)=O (stereo unspecified) | 15.7 µM (inactive) | 18.6 µM (inactive) | 18.6 µM (inactive) | 15.5 µM (inactive) | 12.1 µM (inactive) | 19.7 µM (inactive) | – | 14.4 µM (inactive) | 13.1 µM (inactive) | 15.8 µM (inactive) | 20.8 µM (inactive) | 18.5 µM (inactive) | 21.1 µM (inactive) | – | 27.5 µM (inactive) | 15.2 µM (inactive)
COc1ccc(CCc2ccccc2CC(=O)O)cc1 | > 100 µM (inactive) | > 100 µM (inactive) | > 100 µM (inactive) | > 100 µM (inactive) | > 100 µM (inactive) | > 100 µM (inactive) | > 100 µM (inactive) | > 100 µM (inactive) | > 100 µM (inactive) | > 100 µM (inactive) | > 100 µM (inactive) | > 100 µM (inactive) | > 100 µM (inactive) | > 100 µM (inactive) | > 100 µM (inactive) | > 100 µM (inactive)
CC1SC2=NC3=C(c4ccccc4C3=O)C(c3ccc(F)cc3)N2C1=O (stereo unspecified) | > 100 µM (inactive) | > 100 µM (inactive) | > 100 µM (inactive) | > 100 µM (inactive) | > 100 µM (inactive) | > 100 µM (inactive) | > 100 µM (inactive) | > 100 µM (inactive) | > 100 µM (inactive) | 26.5 µM (inactive) | > 100 µM (inactive) | > 100 µM (inactive) | > 100 µM (inactive) | > 100 µM (inactive) | > 100 µM (inactive) | > 100 µM (inactive)
COC(=O)[C@@]12OC[C@]34C([C@@H](O)C1O)[C@@]1(C)CC(=O)C(O)=C(C)C1C[C@H]3OC(=O)[C@H](OC(=O)/C=C(/c1ccccc1)C(F)(F)F)[C@H]42 (stereo partly specified) | 7.93 µM (inactive) | 4.33 µM (inactive) | 4.21 µM (inactive) | 12 µM (inactive) | 0.363 µM (active) | 2.18 µM (inactive) | 5.74 µM (inactive) | 1.16 µM (inactive) | 1.03 µM (active) | 2.42 µM (inactive) | 8.81 µM (inactive) | 4.72 µM (inactive) | 8.26 µM (inactive) | 7.29 µM (inactive) | 3.62 µM (inactive) | –
COCC(C)(C)/N=C/N1Cc2cc3ccccc3nc2C1 | > 100 µM (inactive) | > 100 µM (inactive) | > 100 µM (inactive) | > 100 µM (inactive) | > 100 µM (inactive) | > 100 µM (inactive) | > 100 µM (inactive) | > 100 µM (inactive) | > 100 µM (inactive) | > 100 µM (inactive) | > 100 µM (inactive) | > 100 µM (inactive) | > 100 µM (inactive) | > 100 µM (inactive) | > 100 µM (inactive) | > 100 µM (inactive)
Nc1ccc(C(=O)N/C(=C\c2ccc3c(c2)OCO3)c2nc3c(O)nc(S)nc3[nH]2)cc1 | > 100 µM (inactive) | > 100 µM (inactive) | > 100 µM (inactive) | > 100 µM (inactive) | – | > 100 µM (inactive) | > 100 µM (inactive) | > 100 µM (inactive) | – | > 100 µM (inactive) | > 100 µM (inactive) | > 100 µM (inactive) | > 100 µM (inactive) | > 100 µM (inactive) | > 100 µM (inactive) | > 100 µM (inactive)
Nc1ccccc1[S+]([O-])c1ccccc1 (stereo unspecified) | > 100 µM (inactive) | > 100 µM (inactive) | > 100 µM (inactive) | > 100 µM (inactive) | > 100 µM (inactive) | – | > 100 µM (inactive) | > 100 µM (inactive) | > 100 µM (inactive) | > 100 µM (inactive) | > 100 µM (inactive) | > 100 µM (inactive) | > 100 µM (inactive) | > 100 µM (inactive) | > 100 µM (inactive) | > 100 µM (inactive)
C[C@@H]1C2=CC[C@@]3(C)C(CCC3[C@H](C)[C@H]3C[C@@]4(C)O[C@@](c5cccnc5)(O3)OC4(C)C)[C@@H]2C2OC2[C@@]12CCC(=O)O2 (stereo partly specified) | 38.2 µM (inactive) | 67.8 µM (inactive) | 46.5 µM (inactive) | – | 17 µM (inactive) | 34.6 µM (inactive) | 38.8 µM (inactive) | 37.4 µM (inactive) | 32 µM (inactive) | 29.3 µM (inactive) | > 100 µM (inactive) | 90.8 µM (inactive) | 25.2 µM (inactive) | 39.9 µM (inactive) | 49.1 µM (inactive) | 37.7 µM (inactive)
CC(=O)N(C(C)=O)c1c(N)n(C)c(=O)[nH]c1=O | > 100 µM (inactive) | > 100 µM (inactive) | > 100 µM (inactive) | > 100 µM (inactive) | > 100 µM (inactive) | > 100 µM (inactive) | > 100 µM (inactive) | > 100 µM (inactive) | > 100 µM (inactive) | – | > 100 µM (inactive) | > 100 µM (inactive) | > 100 µM (inactive) | – | > 100 µM (inactive) | > 100 µM (inactive)
COC1=C(C(=O)OC(C)(C)C)[C@]2(C)C(C(=O)OC(C)(C)C)C(OC)=C(C(=O)OC(C)(C)C)[C@]2(C)C1C(=O)OC(C)(C)C (stereo partly specified) | > 100 µM (inactive) | > 100 µM (inactive) | 69.3 µM (inactive) | > 100 µM (inactive) | 24.9 µM (inactive) | 63.2 µM (inactive) | 79.1 µM (inactive) | > 100 µM (inactive) | 78.2 µM (inactive) | 43.8 µM (inactive) | > 100 µM (inactive) | – | > 100 µM (inactive) | > 100 µM (inactive) | > 100 µM (inactive) | > 100 µM (inactive)
OC1=CN=COc2ccccc21 | > 100 µM (inactive) | > 100 µM (inactive) | > 100 µM (inactive) | > 100 µM (inactive) | > 100 µM (inactive) | > 100 µM (inactive) | > 100 µM (inactive) | > 100 µM (inactive) | > 100 µM (inactive) | – | > 100 µM (inactive) | > 100 µM (inactive) | > 100 µM (inactive) | 50.6 µM (inactive) | > 100 µM (inactive) | > 100 µM (inactive)
CC(=O)CC(=O)NC=O | > 100 µM (inactive) | > 100 µM (inactive) | > 100 µM (inactive) | > 100 µM (inactive) | > 100 µM (inactive) | > 100 µM (inactive) | > 100 µM (inactive) | > 100 µM (inactive) | > 100 µM (inactive) | > 100 µM (inactive) | > 100 µM (inactive) | > 100 µM (inactive) | > 100 µM (inactive) | > 100 µM (inactive) | > 100 µM (inactive) | > 100 µM (inactive)
CCC(C)CC(C)CC(C)/C=C(\C)C1=C(C)CC(C)(O)O1 (stereo unspecified) | 9.53 µM (inactive) | 85.7 µM (inactive) | 87.5 µM (inactive) | > 100 µM (inactive) | 23.7 µM (inactive) | 93.8 µM (inactive) | – | – | 65.6 µM (inactive) | 42.2 µM (inactive) | – | > 100 µM (inactive) | – | > 100 µM (inactive) | – | > 100 µM (inactive)
CCOC(=O)C(C)(C)Oc1ccc2c(-c3ccc(Cl)cc3)cc(=O)oc2c1 | > 100 µM (inactive) | > 100 µM (inactive) | > 100 µM (inactive) | > 100 µM (inactive) | > 100 µM (inactive) | > 100 µM (inactive) | – | > 100 µM (inactive) | > 100 µM (inactive) | – | > 100 µM (inactive) | > 100 µM (inactive) | > 100 µM (inactive) | – | > 100 µM (inactive) | > 100 µM (inactive)
Cc1cc(Cl)ccc1NC1=NC(=O)C(CC(=O)Nc2ccc([N+](=O)[O-])cc2[N+](=O)[O-])S1 (stereo unspecified) | 34.8 µM (inactive) | 27.5 µM (inactive) | 25.1 µM (inactive) | 38.6 µM (inactive) | – | 37 µM (inactive) | 35.1 µM (inactive) | 26.1 µM (inactive) | 29.1 µM (inactive) | – | 38 µM (inactive) | 36.8 µM (inactive) | 20.5 µM (inactive) | 25.2 µM (inactive) | 26.9 µM (inactive) | 32.9 µM (inactive)
COC1C2c3cc4c(cc3CC(C#N)(c3ccccc32)N1C(=O)c1ccccc1)OCO4 (stereo unspecified) | > 100 µM (inactive) | – | > 100 µM (inactive) | > 100 µM (inactive) | > 100 µM (inactive) | > 100 µM (inactive) | > 100 µM (inactive) | > 100 µM (inactive) | > 100 µM (inactive) | 87.3 µM (inactive) | > 100 µM (inactive) | > 100 µM (inactive) | > 100 µM (inactive) | > 100 µM (inactive) | > 100 µM (inactive) | > 100 µM (inactive)
